# Experimental data taken from patent US10323023B2, “Rho-associated protein kinase inhibitor, pharmaceutical composition comprising the same, as well as preparation method and use thereof” (Beijing Tide Pharmaceutical Co., Ltd., priority 2017, dated 2019).
# Target: ROCK2 (Homo sapiens (Human), UniProt O75116)
# Assay: ROCK2 kinase IC50 by HTRF KinEASE-STK S2 kit
# Type: biochemical
# Conditions: 2 hours at room temperature, ROCK2 (01-119) from Carna Biosciences
# Method: The kinase IC50 was determined by a commercialized CISBIO kinase detection kit, HTRF KinEASE-STK S2 kit (62ST2PEC). ROCK2 (01-119) employed in the reaction was purchased from Carna Biosciences.
# Before the assay, the following working solutions as needed were formulated with corresponding reagents according to the instruction of the kinase detection kit: 1×kinase buffer, 5×STK-S2 substrate working solution (1.5 μM) and 5×ATP working solution (1.5 μM), 5×ROCK2 kinase working solution, 4×Streptavidin-XL665 working solution, and 4×STK-Ab-Cryptate 2 detection solution. Then the assay was performed according to the following procedure.
# A solution of a compound at a concentration of 10000 nM was prepared with the 1×kinase buffer containing 2.5% DMSO. Gradient dilution of the solution of the compound was performed with the kinase buffer containing DMSO, so as to obtain solutions of a test compound at 9 different concentrations. In addition to wells of test compounds, a positive well (containing all the reagents except the compound) and a negative well (containing all the reagents except the test compound and kinase) were set. Except for the control wells (positive and negative wells), a solution of a test compound (4 μL) was added to each of the reaction wells, and a solution of 2.5% DMSO was added to the control wells. Then the substrate (2 μM, i.e., 2 μL 5×STK-S2 substrate working solution) was added to each of the reaction wells. The 5×ROCK2 kinase working solution (2 μL, containing 1.4 ng ROCK2 kinase) was added to each of the reaction wells except for the negative well, the volume of which was made up with the 1×kinase buffer (2 μL). The 5×ATP working solution (2 μL) was added to each of the reaction wells, and the mixtures were incubated at room temperature for 2 hours. After the kinase reaction was complete, the 4×Streptavidin-XL665 working solution was added to each of the reaction wells, the solutions were mixed, followed by immediate addition of the 4×STK-Ab-Cryptate 2 detection solution (5 μL), and the mixtures were incubated at room temperature for 1 hour. The fluorescence signal was read on ENVISION (Perkinelmer) (excitation wavelength: 320 nm, and emission wavelength: 665 nm and 615 nm). The inhibitory rate in each well was calculated based on the fluorescence intensity value: ER (Emission Ratio)=(fluorescence intensity at 665 nm/fluorescence intensity at 615 nm); inhibitory rate=(ERpositive−ERtest compound)/(ERpositive−ERnegative)*100%. Curves were plotted and fitted to obtain the median inhibitory concentration (IC50) of each test compound with the PRISM 5.0 software.
# Chain of ROCK2 (O75116 1-553 limits assumed): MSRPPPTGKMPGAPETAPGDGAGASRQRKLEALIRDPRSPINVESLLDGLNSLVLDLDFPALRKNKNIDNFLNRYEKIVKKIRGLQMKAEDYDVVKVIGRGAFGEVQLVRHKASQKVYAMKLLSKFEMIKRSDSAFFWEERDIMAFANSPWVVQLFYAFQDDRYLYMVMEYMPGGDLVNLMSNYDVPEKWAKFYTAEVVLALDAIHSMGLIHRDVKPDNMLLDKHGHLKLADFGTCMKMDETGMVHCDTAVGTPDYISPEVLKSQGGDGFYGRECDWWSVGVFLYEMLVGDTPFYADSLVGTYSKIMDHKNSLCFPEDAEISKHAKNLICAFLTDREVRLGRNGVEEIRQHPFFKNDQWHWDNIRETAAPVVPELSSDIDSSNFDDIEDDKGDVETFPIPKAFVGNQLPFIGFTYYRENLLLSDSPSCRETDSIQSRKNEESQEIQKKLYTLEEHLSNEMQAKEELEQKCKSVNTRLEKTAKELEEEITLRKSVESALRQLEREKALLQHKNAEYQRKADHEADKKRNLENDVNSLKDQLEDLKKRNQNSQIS
row,SMILES,IC50
1,"Cc1nc(-c2ccc3cc(C(=O)Nc4ccnnc4)[nH]c3c2)nc(Nc2ccc3[nH]ncc3c2)c1C [TDI01232, 6-(4-((1H-indazol-5-yl)amino)-5,6-dimethylpyrimidin-2-yl)-N-(pyridazin-4-yl)-1H-indole-2-carboxamide]",295 nM
2,"O=C(Nc1ccnnc1)c1cc2ccc(-c3nccc(Nc4ccc5[nH]ncc5c4)n3)cc2s1 [TDI01116, 6-(4-((1H-indazol-5-yl)amino)pyrimidin-2-yl)-N-(pyridazin-4-yl)benzo[b]thiophene-2-carboxamide]",236 nM
3,"Cc1cnc(-c2ccc3cc(C(=O)Nc4ccnnc4)[nH]c3c2)nc1Nc1ccc2[nH]ncc2c1 [TDI01250, 6-(4-((1H-indazol-5-yl)amino)-5-methyl-pyrimidin-2-yl)-N-(pyridazin-4-yl)-1H-indole-2-carboxamide]",208 nM
4,"O=C(Nc1ccnnc1)c1cc2ccc(-c3ncc(F)c(Nc4ccc5[nH]ncc5c4)n3)cc2[nH]1 [TDI01213, 6-(4-((1H-indazol-5-yl)amino)-5-fluoro-pyrimidin-2-yl)-N-(pyridazin-4-yl)-1H-indole-2-carboxamide]",255 nM
5,"CN(C(=O)c1cc2ccc(-c3nccc(Nc4ccc5[nH]ncc5c4)n3)cc2[nH]1)c1ccnnc1 [TDI01347, 6-(4-((1H-indazol-5-yl)amino)pyrimidin-2-yl)-N-methyl-N-(pyridazin-4-yl)-1H-indole-2-carboxamide]",356 nM
6,"O=C(Nc1ccnnc1)c1cc2ccc(-c3nc(Nc4ccc5[nH]ncc5c4)cc4nccn34)cc2[nH]1 [TDI01164, 6-(7-((1H-indazol-5-yl)amino)imidazo[1,2-c]pyrimidin-5-yl)-N-(pyridazin-4-yl)-1H-indole-2-carboxamide]",438 nM
7,"O=C(Nc1ccnnc1)c1cc2ccc(-c3ncnc(Nc4ccc5[nH]ncc5c4)n3)cc2[nH]1 [TDI01167, 6-(4-((1H-indazol-5-yl)amino)-1,3,5-triazin-2-yl)-N-(pyridazin-4-yl)-1H-indole-2-carboxamide]",223 nM
8,"O=C(Nc1ccnnc1)c1c[nH]c2ccc(-c3nccc(Nc4ccc5[nH]ncc5c4)n3)cc12 [TDI01191, 5-(4-((1H-indazol-5-yl)amino)pyrimidin-2-yl)-N-(pyridazin-4-yl)-1H-indole-3-carboxamide]",225 nM

# Now those with a lower IC50, led by results:
row,IC50,SMILES
1,37 nM,"O=C(Nc1ccnnc1Cl)c1cc2ccc(-c3nccc(Nc4ccc5[nH]ncc5c4)n3)cc2[nH]1 [TDI01180, 6-(4-((1H-indazol-5-yl)amino)pyrimidin-2-yl)-N-(3-chloro-pyridazin-4-yl)-1H-indole-2-carboxamide]"
2,135 nM,"O=C(Nc1ccnnc1)c1ccc2ccc(-c3nccc(Nc4ccc5[nH]ncc5c4)n3)cc2n1 [TDI01236, 7-(4-((1H-indazol-5-yl)amino)pyrimidin-2-yl)-N-(pyridazin-4-yl)quinoline-2-carboxamide]"
3,171 nM,"O=C(Nc1ccnnc1)N1Cc2ccc(-c3nccc(Nc4ccc5[nH]ncc5c4)n3)cc2C1 [TDI01237, 5-(4-((1H-indazol-5-yl)amino)pyrimidin-2-yl)-N-(pyridazin-4-yl)isoindoline-2-carboxamide]"
4,92 nM,"O=C(Nc1cnncc1Cl)c1cc2ccc(-c3nccc(Nc4ccc5[nH]ncc5c4)n3)cc2[nH]1 [TDI01181, 6-(4-((1H-indazol-5-yl)amino)pyrimidin-2-yl)-N-(5-chloro-pyridazin-4-yl)-1H-indole-2-carboxamide]"
5,123 nM,"O=C(Nc1ccnnc1)c1cc2cc(-c3nccc(Nc4ccc5[nH]ncc5c4)n3)ccc2[nH]1 [TDI01188, 5-(4-((1H-indazol-5-yl)amino)pyrimidin-2-yl)-N-(pyridazin-4-yl)-1H-indole-2-carboxamide]"
6,48 nM,"Cn1c(C(=O)Nc2ccnnc2)cc2ccc(-c3nccc(Nc4ccc5[nH]ncc5c4)n3)cc21 [TDI01201, 6-(4-((1H-indazol-5-yl)amino)pyrimidin-2-yl)-1-methyl-N-(pyridazin-4-yl)-1H-indole-2-carboxamide]"
7,101 nM,"Cc1cc(Nc2ccc3[nH]ncc3c2)nc(-c2ccc3cc(C(=O)Nc4ccnnc4)[nH]c3c2)n1 [TDI01251, 6-(4-((1H-indazol-5-yl)amino)-6-methyl-pyrimidin-2-yl)-N-(pyridazin-4-yl)-1H-indole-2-carboxamide]"
8,197 nM,"O=C(Nc1ccnnc1)c1cc2ccc(-c3nc(Nc4ccc5[nH]ncc5c4)c4sccc4n3)cc2[nH]1 [TDI01175, 6-(4-((1H-indazol-5-yl)amino)thieno[3,2-d]pyrimidin-2-yl)-N-(pyridazin-4-yl)-1H-indole-2-carboxamide]"
9,113 nM,"Cc1c(Nc2ccnc(-c3ccc4cc(C(=O)Nc5ccnnc5)[nH]c4c3)n2)ccc2[nH]ncc12 [TDI01276, 6-(4-((4-methyl-1H-indazol-5-yl)amino)pyrimidin-2-yl)-N-(pyridazin-4-yl)-1H-indole-2-carboxamide]"
10,168 nM,"O=C(NCc1ccnnc1)c1cc2ccc(-c3nccc(Nc4ccc5[nH]ncc5c4)n3)cc2[nH]1 [TDI01178, 6-(4-((1H-indazol-5-yl)amino)pyrimidin-2-yl)-N-(pyridazin-4-ylmethyl)-1H-indole-2-carboxamide]"
11,88 nM,"O=C(Nc1ccnnc1)c1cc2ccc(-c3nccc(Nc4ccc5[nH]ncc5c4)n3)cc2[nH]1 [TDI01152, 6-(4-((1H-indazol-5-yl)amino)pyrimidin-2-yl)-N-(pyridazin-4-yl)-1H-indole-2-carboxamide]"
